Data taken from PMC5730604.
Like-named read-outs stand apart in the source and are kept apart here. Starred links: 1 amine or outer side, 2 acyl side, 3 side chain; linkers in the order of their positions; H or OH if unused. Positions of bridges follow the written chain, without caps; N, C: chain ends. Non-standard residues stand in square brackets, D forms with d. Residues, ends and D or L forms follow the SMILES beside them. Groups on a side chain read outwards from the residue. *: point of attachment. PEG28 = NCCOCCOCCOCCOCCOCCOCCOCCOCCOCCOCCOCCOCCOCCOCCOCCOCCOCCOCCOCCOCCOCCOCCOCCOCCOCCOCCOCCOCCC(=O)O; X1 = O=C(CCCC[C@@H]1SC[C@@H]2NC(=O)N[C@@H]21)NCCCOCCOCCOCCCN*; Tyr(3-NO2) = N[C@@H](Cc1ccc(O)c([N+](=O)[O-])c1)C(=O)O; Glutaryl = O=C(CCCC(=O)[*:2])[*:1]; Hyp = O=C(O)[C@@H]1C[C@@H](O)CN1; PEG4 = NCCOCCOCCOCCOCCC(=O)O; For = O=C*

Key:
A431 = assay: Flow cytometry binding to cells; parameters: species or system Human; key to the marks not given beside the values; details: 1 µM biotinylated peptide
PC-3 = assay: Flow cytometry binding to cells; parameters: species or system Human; key to the marks not given beside the values; details: 1 µM biotinylated peptide
K562 = assay: Flow cytometry binding to cells; parameters: species or system Human; details: 1 µM biotinylated peptide; also: key: ++: Strong binding; +: medium binding; +/−: weak binding; −: no binding
HUVEC = assay: Flow cytometry binding to cells; parameters: species or system Human; details: 1 µM biotinylated peptide
foreskin fibroblasts = details: flow cytometry, 1 µM biotinylated peptide
primary lymphocytes = assay: Flow cytometry binding to cells; details: 1 µM biotinylated peptide; also: key: ++: Strong binding; +: medium binding; +/−: weak binding; −: no binding
primary monocytes = assay: Flow cytometry binding to cells; details: 1 µM biotinylated peptide; also: key: ++: Strong binding; +: medium binding; +/−: weak binding; −: no binding
primary granulocytes = assay: Flow cytometry binding to cells; details: 1 µM biotinylated peptide; also: key: ++: Strong binding; +: medium binding; +/−: weak binding; −: no binding
primary monocytes 2 days = assay: Flow cytometry binding to cells; details: 1 µM biotinylated peptide; also: key: ++: Strong binding; +: medium binding; +/−: weak binding; −: no binding
[1] = tested on: primary macrophages 7 days; assay: Flow cytometry binding to cells; details: 1 µM biotinylated peptide; as to binding to macrophages 7 days: key: ++: strong binding; +: m edium binding; +/-: weak or heterogeneous binding; -: no binding
J774A.1 = details: mouse, flow cytometry, 1 µM biotinylated peptide
3LL-R = details: mouse, flow cytometry, 1 µM biotinylated peptide
Hepa1–6 = details: mouse, flow cytometry, 1 µM biotinylated peptide
primary macrophages 7d = assay: Flow cytometry binding to cells; details: 1 µM biotinylated peptide; also: key: ++: Strong binding; +: medium binding; +/−: weak binding; −: no binding
GPC-16 = assay: Flow cytometry binding to cells; parameters: key to the marks not given beside the values; details: 1 µM biotinylated peptide
104C1 = assay: Flow cytometry binding to cells; parameters: key to the marks not given beside the values; details: 1 µM biotinylated peptide
JH4 clone 1 = assay: Flow cytometry binding to cells; parameters: key to the marks not given beside the values; details: 1 µM biotinylated peptide
U-87MG = assay: Flow cytometry binding to cells; parameters: key: ++: strong binding; +: m edium binding; +/-: weak or heterogeneous binding; -: no binding; details: Table S1, human, 1 µM biotinylated peptide, 2 mM MnCl2, on ice
U-138MG = assay: Flow cytometry binding to cells; parameters: key: ++: strong binding; +: m edium binding; +/-: weak or heterogeneous binding; -: no binding; details: Table S1, human, 1 µM biotinylated peptide, 2 mM MnCl2, on ice
MCF-7 = assay: Flow cytometry binding to cells; details: Table S1, human, 1 µM biotinylated peptide, 2 mM MnCl2, on ice; also: key: ++: strong binding; +: m edium binding; +/-: weak or heterogeneous binding; -: no binding
MDA-MB-231 = assay: Flow cytometry binding to cells; parameters: key: ++: strong binding; +: m edium binding; +/-: weak or heterogeneous binding; -: no binding; details: Table S1, human, 1 µM biotinylated peptide, 2 mM MnCl2, on ice
HT-29 = assay: Flow cytometry binding to cells; parameters: key: ++: strong binding; +: m edium binding; +/-: weak or heterogeneous binding; -: no binding; details: Table S1, human, 1 µM biotinylated peptide, 2 mM MnCl2, on ice
A549 = tested on: A549; parameters: key to the marks not given beside the values; details: Table S1; human; flow cytometry, 1 µM biotinylated peptide, 2 mM MnCl2, on ice
MHEC5-T = details: Table S1; mouse; flow cytometry, 1 µM biotinylated peptide, 2 mM MnCl2, on ice
3LL-S = details: Table S1; mouse; flow cytometry, 1 µM biotinylated peptide, 2 mM MnCl2, on ice
MC38 = details: Table S1; mouse; flow cytometry, 1 µM biotinylated peptide, 2 mM MnCl2, on ice
EG7 = details: Table S1; mouse; flow cytometry, 1 µM biotinylated peptide, 2 mM MnCl2, on ice
TSA = details: Table S1; mouse; flow cytometry, 1 µM biotinylated peptide, 2 mM MnCl2, on ice
C26 = details: Table S1; mouse; flow cytometry, 1 µM biotinylated peptide, 2 mM MnCl2, on ice
VX2 / J S-2-2r = assay: Flow cytometry binding to cells; parameters: key: ++: strong binding; +: m edium binding; +/-: weak or heterogeneous binding; -: no binding; details: Table S1, rabbit, 1 µM biotinylated peptide, 2 mM MnCl2, on ice
leukocytes = details: Table S1; rabbit; flow cytometry, 1 µM biotinylated peptide, 2 mM MnCl2, on ice
PBEC = details: Table S1; pig; flow cytometry, 1 µM biotinylated peptide, 2 mM MnCl2, on ice
NIH-3T3 = details: mouse, flow cytometry, 1 µM biotinylated peptide
Method: (§9) from DSMZ or LGC and cultured according to the distributors’ guidelines. Human, murine or
(§10) guinea pig leukocytes or macrophages were isolated and cultured as described below. Cells
(§11) growing in monolayers were detached using trypsin/EDTA and then re- suspended in complete
(§12) culture medium. After washing with washing buffer (W B: 0.9% NaCl, 10 mM Hepes, pH 7.3) at
(§13) 4°C, cells were re-suspended at 2x10^6 cells/ml in peptide blocking b uf f er ( PBB: 0.9% NaCl,
(§14) 10 m M H epes, pH 7.3, 5 m M KCl , 3% BSA, 5% FCS) and incubated for 10 minutes on ice
(§15) concentration in PBB were added to equal volumes of aliquots of 1x10^5 cells, and were
(§16) incubated f or 30 min on ice with repeated shaking to keep the cells in suspension. Except
(§17) three times wit h 1 ml W B, followed by incubation with streptavidin labeled wit h PerCP-Cy5.5
(§18) (BD Biosciences, 200 µg/ml; diluted 1:400 in PBB) for 15 min on ice. After one additional
(§19) wa s h ing step with phosphate- buffered saline (PBS) at 4°C, samples were re-suspended in
(§20) PBS with Hoechst 33258 solution (0.5 µg/ml) and analyzed using a F ACS Canto system ( at
least 1x10^4 cells per sample were counted). Evaluations were performed using FloJo software.
W hole cells were gated i n a FSC/SSC plot and live gating was based on Hoechst exclusion.
After gating out debris, aggregates and dead cells, overlay histograms in the PerCP-Cy5.5
indicated cases the geometrical mean f luorescence was recorded.
For determining binding affinity, a rang e of concentrations of the biotinylated compound was
tested and the f luorescent signals were plotted against concentration. The concentration at
which half-maximum binding intensity was reached (KD) was calculated using Origin 9.0
sof tware and a “one site specif ic binding” fit (y =(Bmax* x) /(KD+x) ).
f luorescent signals were plotted against competitor concentration. The concentration at which

HeLa = tested on: HeLa; parameters: key to the marks not given beside the values; details: Table S1; human; flow cytometry, 1 µM biotinylated peptide, 2 mM MnCl2, on ice
L-929 = details: Table S1; mouse; flow cytometry, 1 µM biotinylated peptide, 2 mM MnCl2, on ice
Method: as §9, §10, §11, §12, §13, §14, §15, §16, §17, §18, §19, §20
(§21) least 1x10^4 cells per sample were counted). Evaluations were performed using FloJo software. […]
(§22) indicated cases the geometrical mean f luorescence was recorded. […]
(§23) which half-maximum binding intensity was reached (KD) was calculated using Origin 9.0 […]

E0771 = details: Table S1; mouse; flow cytometry, 1 µM biotinylated peptide, 2 mM MnCl2, on ice
Method: as §9, §10, §11, §12, §13, §14, §15, §16, §17, §18, §19, §20, §21, §22, §23

4T1 = details: Table S1; mouse; flow cytometry, 1 µM biotinylated peptide, 2 mM MnCl2, on ice
Method: as §9, §10, §11, §12, §13, §14, §15, §16, §17, §18, §19, §20, §21, §22, §23

PC-3 or A431 cells = details: PC-3 or A431 cells, incubated at 37 °C, streptavidin staining
Method: washed as described above and then re-suspended in Eagle’s minimum essential medium
incubated on ice or at 37°C. At different time points after washing 50 µl samples were taken
and added to 50 µl of Streptavidin- PerCP-Cy5.5 (diluted 1:200), incubated on ice f or 15 min,
washed with PBS, and analyzed in PBS with Hoechst solution. Fluorescent signals were
plotted against time between washing and streptavidin addition.
over time after incubation on ice and at 37°C.
labeled streptavidin as described previously f or flow cytometry assays.

human leukocytes = assay: Chemotaxis assay; type: cell-based; details: compared with the non-PEGylated effector
Method: Human leukocytes were re-suspended in Hank ’s Buffered Saline Solution (HBSS, without
Ca2+, Mg 2+) with 10 mM Hepes pH 7.3 and 0.3% BSA at 10^7 cells/ml. Cells were pre-warmed
at 37°C for 20 min. After adding the effector dilutions in the lower compartment of 24-well plates
(800 µl/well), a Millicell culture plate insert with 5 µm pore size was placed in each well, f ollowed
by immediate addition of 200 µl (2 million) leuk ocytes. In one well, the cells were added without
a f ilter insert, allowing determination of the input number. The plate was incubated at 37°C and
5% CO2 f or 45 min. 5 mM EDTA solution was added and the plate was incubated f or another
10 min at 37 °C. […]
Phorbol
(§1) 12- m yr ist oyl 13-acetate (P MA , 3 µg/ml) was used as a positive control. All samples were f ixed
(§2) in 1% formaldehyde Hoechst 33258 solution (0.5 µg/ml) was added and cells were k ept on ice
(§3) until analysis using a FACS Canto system. After gating for live cells and granulocytes (human
(§4) cells) or non- lymphocytes (murine cells) in the FSC/SSC plot, rhodamine-positive cells were
(§5) identif ied in a PE/SSC plot, using an unstimulated sample as a reference.
(§6) Human monocytes, after an overnight pre- culture, were incubated f or 6 more hours in 1 ml
(§7) RPMI+10% FCS containing 100 nM F2- 2PEG, 0.1 ng/ml LPS (Sigma- Aldrich), or no stimulus.
(§8) All experiments were performed in duplicates. […]

human granulocytes = assay: Oxidative burst (dihydro-rhodamine oxidation) assay; type: cell-based; details: compared with the non-PEGylated effector
Method: Activation of the oxidative burst (phagocyte NADPH oxidase) was measured using a
dihydrorhodamine (DHR, Molecular Probes) oxidation assay, based on a method described
previously1. In brief, 200 µl samples of human, murine or guinea pig leukocytes (1.25x 106
cells/ml in HHBS + 10 mM Hepes, pH 7.3, 0.3% BSA and 5 mM EDTA) were loaded with DHR
and catalase (Sigma-Aldrich) and cytochalasin B (Sigma-Aldrich) were added. Cells were pre-
incubated at 37°C for 10 min followed by the addition of 50 µl of effector dilutions (5x the
intended concentration) in the same buffer and another 15 min of incubation at 37°C. Phorbol
as §1, §2, §3, §4, §5, §6, §7, §8

human monocytes = assay: Cytokine release assay (ELISA); type: cell-based; details: 6 h incubation
Method: Phorbol
as §1, §2, §3, §4, §5, §6, §7
All experiments were performed in duplicates. Supernatants were centrif uged and aliq uot s of
150 µl were stored at - 80 °C until cytokine levels were measured with commercially available
ELISA kits (Ready-set-go system, eBiosciences). Cytokine concentrations in supernatants
were measured and calculated based on the standards included wit hin the ELISA kits and as
described by the manufacturer’s instructions. The following k its were used: Human TNFα (88-
analysis. Measured cytok ine levels were normalized to 1 (the average of the two unstimulated

mouse skin = assay: Local skin inflammation model, immune cell infiltration; type: in vivo; details: mouse skin, 24 h after subcutaneous injection of 100 nmol in Matrigel, HE sections
Method: Animals: Eighth Edition. W ashington, DC: The National Academies Press, 2011) were […]
Committee (LANUV AZ. 87- 51.04.2010.A278). All experiments were performed in the Institute […]
GmbH (Sulzf eld, Germany) were used. Mice were housed in individual ventilated cages under […]
humidity and a 12h dark/light cycle.
Soest, Germany) was given ad libitum. Guinea pigs were housed in conventional open cages in the same way as describe for mice. Animals were allowed to acclimatize to their […]
additional immunohistochemical stainings with antibodies against granulocytes/monocytes

[2] = 2 mM MnCl2, 30 min on ice, streptavidin-PerCP-Cy5.5
[3] = Table S1, human, 2 mM MnCl2, on ice
[4] = human, 2 mM MnCl2, 30 min on ice, streptavidin-PerCP-Cy5.5
[5] = Table S1, guinea pig, 2 mM MnCl2, on ice
[6] = guinea pig, 2 mM MnCl2, 30 min on ice, streptavidin-PerCP-Cy5.5
[7] = 100 nM F2-2PEG or 0.1 ng/ml LPS

## NC(=O)C[C@@H]1NC(=O)[C@@H]2C[C@@H](O)CN2C(=O)CNC(=O)[C@H](Cc2ccc(O)c([N+](=O)[O-])c2)NC(=O)CNC(=O)[C@@H](CC(=O)O)NC(=O)[C@H](N)CSSC[C@H](C(=O)NCCOCCOCCOCCOCCC(=O)N[C@@H](CCCCNC(=O)CCCC(=O)NCCCOCCOCCOCCCNC(=O)CCCC[C@@H]2SC[C@@H]3NC(=O)N[C@@H]32)C(N)=O)NC1=O [B9-Biotin] (H-[dC][dD]G[Tyr(3-NO2)]G[Hyp]N[dC][PEG4]K([Glutaryl-X1])-NH2; disulfide 1-8)
A431; [2]
  binding to A431: ++
A431; [3]
  binding to A431: ++
PC-3; [2]
  binding to PC-3: ++
PC-3; [3]
  binding to PC-3: ++
K562; [2]
  binding to K562: −
K562; [3]
  binding to K562: -
HUVEC; [2]
  binding to HUVEC: +
HUVEC; [3]
  binding to HUVEC: +
Foreskin fibroblasts; [3]
  binding to foreskin fibroblasts: -
Foreskin fibroblasts; [2]
  binding to foreskin fibroblasts: −
Primary lymphocytes; [3]
  binding to fresh lymphocytes: -
Primary lymphocytes; [4]
  binding to primary lymphocytes: −
Primary monocytes; [3]
  binding to fresh monocytes: -
Primary monocytes; [4]
  binding to primary monocytes: −
Primary granulocytes; [3]
  binding to fresh granulocytes: -
Primary granulocytes; [4]
  binding to primary granulocytes: −
Primary monocytes 2 days; [3]
  binding to monocytes 2 days: -
Primary monocytes 2 days; [4]
  binding to primary monocytes 2 days: −
[1]; [3]
  binding to macrophages 7 days: +/-
[1]; [4]
  binding to primary macrophages 7 days: +/−
J774A.1; Table S1, 2 mM MnCl2, on ice
  binding to J774A.1: -
J774A.1; [2]
  binding to J774A.1: −
3LL-R; Table S1, 2 mM MnCl2, on ice
  binding to 3LL-R: +
3LL-R; [2]
  binding to 3LL-R: +
Hepa1–6; Table S1, 2 mM MnCl2, on ice
  binding to Hepa1-6: +
Hepa1–6; [2]
  binding to Hepa1–6: +
Primary macrophages 7d; Table S1, mouse, 2 mM MnCl2, on ice
  binding to macrophages 7d: -
Primary macrophages 7d; mouse, 2 mM MnCl2, 30 min on ice, streptavidin-PerCP-Cy5.5
  binding to primary macrophages 7d: −
GPC-16; [5]
  binding to GPC-16: ++
GPC-16; [6]
  binding to GPC-16: ++
104C1; [5]
  binding to 104C1: ++
104C1; [6]
  binding to 104C1: ++
JH4 clone 1; [5]
  binding to JH4 clone 1: ++
JH4 clone 1; [6]
  binding to JH4 clone 1: ++
U-87MG
  binding to U-87MG: ++
U-138MG
  binding to U-138MG: ++
MCF-7
  binding to MCF-7: +
MDA-MB-231
  binding to MDA-MB-231: ++
HT-29
  binding to HT-29: ++
A549
  binding to A549: ++
MHEC5-T
  binding to MHEC5-T: +
3LL-S
  binding to 3LL-S: +
MC38
  binding to MC38: -
EG7
  binding to EG7: -
TSA
  binding to TSA: +
C26
  binding to C26: +
VX2 / J S-2-2r
  binding to VX2 / J S-2-2r: ++
leukocytes
  binding to leukocytes: -
PBEC
  binding to PBEC: +
NIH-3T3; Table S1, 2 mM MnCl2, on ice
  binding to NIH-3T3: +
NIH-3T3; [2]
  binding to NIH-3T3: +
HeLa
  binding to HeLa: ++
L-929
  binding to L-929: -
E0771
  binding to E0771: -
4T1
  binding to 4T1: +
PC-3 or A431 cells
  streptavidin signal on cells after 5 min: no signal above background

## CC[C@H](C)[C@H](NC(=O)[C@H](CCSC)NC=O)C(=O)N[C@@H](Cc1ccccc1)C(=O)N[C@@H](CC(C)C)C(=O)NCC(=O)NCC(=O)N[C@@H](CCCCNC(=O)CCOCCOCCOCCOCCOCCOCCOCCOCCOCCOCCOCCOCCOCCOCCOCCOCCOCCOCCOCCOCCOCCOCCOCCOCCOCCOCCOCCOCCN)C(=O)N[C@@H](CCCCNC(=O)CCOCCOCCOCCOCCOCCOCCOCCOCCOCCOCCOCCOCCOCCOCCOCCOCCOCCOCCOCCOCCOCCOCCOCCOCCOCCOCCOCCOCCN)C(=O)O [F2-2PEG] (For-MIFLGGK(PEG28)K(PEG28)-OH)
Human leukocytes
  loss of potency to induce chemotaxis when linked to the PEG chains: 1–2 orders of magnitude
Human granulocytes
  loss of potency for neutrophil activation (superoxide production) when linked to the PEG chains: 1–2 orders of magnitude
Human monocytes; 100 nM F2-2PEG
  IL-1β secreted: increased
Human monocytes; [7]
  IL-6 level: not significantly increased
  IL-8 level: not significantly increased
  TNFα level: not significantly increased
Mouse skin
  immune cell infiltration at the injection site: clearly showed infiltration by immune cells
